In brackets after ≈: the same amount, converted by molar mass.
Tests used:
[1] = system: Bacillus subtilis; experiment: MIC, antibacterial test; assay type: cell-based; conditions: read-out: Minimum inhibitory concentration (MIC)
Method: (§1) Compounds were tested for their antimicrobial activity against […] fungi (Candida albicans, Mucor hiemails, Pichia anomala, Rhodotorula glutinis and Schizosaccharomyces pombe), four different Gram-positive bacteria (Bacillus subtilis, Micrococcus luteus, Mycobacterium smegmatis and Staphylococcus aureus), and three Gram-negative bacteria (Chromobacterium violaceum, Escherichia coli and Pseudomonas aeruginosa), using oxytetracycline as a positive control against Gram-positive and Gram-negative bacteria, while nystatin was used as an antifungal positive control. Besides, cytotoxicities of the compounds against seven mammalian cell lines (human endocervical adenocarcinoma KB 3.1, breast cancer MCF-7, lung cancer A549, ovary cancer SK-OV-3, prostate cancer PC-3, squamous cancer A431, and mouse fibroblasts L929) were determined by the microculture tetrazolium test (MTT) method, using epothilon B as the positive control. Both bioactivity assays were performed following our standard protocols.

[2] = system: Micrococcus luteus; experiment: MIC, antibacterial test; assay type: cell-based; conditions: read-out: Minimum inhibitory concentration (MIC)
Method: as §1

[3] = system: Staphylococcus aureus; experiment: MIC, antibacterial test; assay type: cell-based; conditions: read-out: Minimum inhibitory concentration (MIC)
Method: as §1

[4] = system: Mycobacterium smegmatis; experiment: MIC, antibacterial test; assay type: cell-based; set-up: key: –: no inhibition observed under test conditions
Method: as §1

[5] = system: Al. brassicicola, Co. gloeosporioides, Co. truncatum, Cu. lunata and Py. grisea; set-up: method as in PMID 29677644; conditions: cited from earlier work
[6] = system: NCI-H187 and Vero; set-up: method as in PMID 29677644; conditions: cited from earlier work
[7] = system: Chromobacterium violaceum; experiment: MIC, antibacterial test; assay type: cell-based; set-up: key to Minimum inhibitory concentration (MIC): –: no inhibition observed under test conditions; conditions: read-out: Minimum inhibitory concentration (MIC)
Method: as §1

[8] = system: Escherichia coli; experiment: MIC, antibacterial test; assay type: cell-based; set-up: key to Minimum inhibitory concentration (MIC): –: no inhibition observed under test conditions
Method: as §1

[9] = system: Pseudomonas aeruginosa; experiment: MIC, antibacterial test; assay type: cell-based; set-up: key to Minimum inhibitory concentration (MIC): –: no inhibition observed under test conditions
Method: as §1

[10] = system: Mucor hiemalis; experiment: MIC, antifungal test; assay type: cell-based; set-up: key to Minimum inhibitory concentration (MIC): –: no inhibition observed under test conditions
Method: as §1

[11] = system: Rhodotorula glutinis; experiment: MIC, antifungal test; assay type: cell-based; set-up: key to Minimum inhibitory concentration (MIC): –: no inhibition observed under test conditions
Method: as §1

[12] = system: Pichia anomala; experiment: MIC, antifungal test; assay type: cell-based; set-up: key to Minimum inhibitory concentration (MIC): –: no inhibition observed under test conditions
Method: as §1

[13] = system: Schizosaccharomyces pombe; experiment: MIC, antifungal test; assay type: cell-based; set-up: key to Minimum inhibitory concentration (MIC): –: no inhibition observed under test conditions
Method: as §1

[14] = system: Candida albicans; experiment: MIC, antifungal test; assay type: cell-based; set-up: key to Minimum inhibitory concentration (MIC): –: no inhibition observed under test conditions
Method: as §1

[15] = Cytotoxicity, MTT method
Method: as §1

[16] = system: KB 3.1, L929, A549, SK-OV-3, PC-3, A431, and MCF-7 mammalian cell lines; experiment: Cytotoxicity, summary over all tested cell lines; assay type: cell-based; conditions: seven mammalian cell lines; read-out: IC50 values, range over all tested cell lines
Method: as §1

[17] = system: ovary cancer SK-OV-3; experiment: Cytotoxicity, MTT method; conditions: read-out: Cytotoxicity, half maximal inhibitory concentration (IC50); SK-OV-3, MTT
Method: as §1

[18] = system: lung cancer A549; experiment: Cytotoxicity, MTT method; conditions: read-out: Cytotoxicity, half maximal inhibitory concentration (IC50); A549, MTT
Method: as §1

[19] = system: A431 human squamous cancer cells; experiment: Cytotoxicity, MTT method; conditions: read-out: Cytotoxicity, half maximal inhibitory concentration (IC50); A431, MTT
Method: as §1

[20] = system: prostate cancer PC-3; experiment: Cytotoxicity, MTT method; conditions: read-out: Cytotoxicity, half maximal inhibitory concentration (IC50); PC-3, MTT
Method: as §1

[21] = system: human endocervical adenocarcinoma KB 3.1; experiment: Cytotoxicity, MTT method; conditions: read-out: Cytotoxicity, half maximal inhibitory concentration (IC50); KB 3.1, MTT
Method: as §1

[22] = system: MCF-7 human breast cancer cells; experiment: Cytotoxicity, MTT method; conditions: read-out: Cytotoxicity, half maximal inhibitory concentration (IC50); MCF-7, MTT
Method: as §1

[23] = system: mouse fibroblasts L929; experiment: Cytotoxicity, MTT method; conditions: read-out: Cytotoxicity, half maximal inhibitory concentration (IC50); L929, MTT
Method: as §1

[24] = system: PC-3 prostate cancer cells; set-up: method as in PMID 31433962; conditions: cited from earlier work

Molecule: COC(=O)[C@]12Oc3c(c(O)cc4c3[C@@H]3C=C[C@]5(C4)C(=C(O)c4c(O)cc(C)cc4[C@@H]5O)C3=O)C(=O)C1=C(O)CC[C@@H]2O [Compound 8, Xanthoquinodin B4]
- MIC [1]: 2.1 µg/mL (≈ 3.66 µM)
- MIC [2]: 8.3 µg/mL (≈ 14.4 µM)
- MIC [3]: 8.3 µg/mL (≈ 14.4 µM)
- Minimum inhibitory concentration (MIC) [4]: –
- Antifungal effects (in words) [5]: significant antifungal effects
- Cytotoxicity compared with other xanthoquinodins (in words) [6]: stronger cytotoxicity
- MIC [7]: 66.7 µg/mL (≈ 116 µM)
- Minimum inhibitory concentration (MIC) [8]: –
- Minimum inhibitory concentration (MIC) [9]: –
- Minimum inhibitory concentration (MIC) [10]: –
- Minimum inhibitory concentration (MIC) [11]: –
- Minimum inhibitory concentration (MIC) [12]: –
- Minimum inhibitory concentration (MIC) [13]: –
- Minimum inhibitory concentration (MIC) [14]: –
- IC50 ([15]; human, A431 squamous cancer cells): 160 nM
- IC50 ([15]; human, A549 lung cancer cells): 1220 nM
- IC50 ([15]; human, KB 3.1 endocervical adenocarcinoma cells): 1060 nM
- IC50 ([15]; human, MCF-7 breast cancer cells): 100 nM
- IC50 ([15]; human, PC-3 prostate cancer cells): 3140 nM
- IC50 ([15]; human, SK-OV-3 ovary cancer cells): 470 nM
- IC50 ([15]; mouse, L929 fibroblasts): 4700 nM
- IC50 [16]: 100 to 4700 nM

Molecule: C/C(=C\c1csc(C)n1)[C@@H]1C[C@@H]2O[C@]2(C)CCC[C@H](C)[C@H](O)[C@@H](C)C(=O)C(C)(C)[C@@H](O)CC(=O)O1 [epothilon B, reference compound]
- IC50 [17]: 0.09 nM
- IC50 [18]: 0.09 nM
- IC50 [19]: 0.05 nM
- IC50 [20]: 0.07 nM
- IC50 [21]: 0.03 nM
- IC50 [22]: 0.03 nM
- IC50 [23]: 0.51 nM

Molecule: xanthoquinodin JBIR-99
- Antiproliferative activity (in words) [24]: high selective antiproliferative activity
